Measurements taken from US10377818B2, “Method of treating glioma” (The Board of Trustees of the Leland Stanford Junior …, priority 2015, dated 2019).
Read-outs that look alike come from different tables or passages of the source.

Experiments:
SU-pcGBM2 cells [1] = assay: EdU incorporation assay, proliferation index of pHGG cells (SU-pcGBM2); format: cell-based, human; conditions: for effect on the proliferative effect of active CM: 100 nM TRKB inhibitor ANA12 in combination with 500 nM NRXN; for effect on 50 nM NLGN3-induced increase in proliferation index: inhibitor 100 nM, EdU assay; for effect on proliferation index relative to aCSF control: recombinant candidate proteins at 100 nM for 24 hours; for potency of proliferation promotion compared with NLGN3: pHGG cells, dose curves 0-100 nM
secreted NLGN3 = assay: Secreted NLGN3 in active CM of acute cortical slices incubated with protease inhibitors, Western blot; format: cell-based, mouse; conditions: slices incubated with protease inhibitor during optogenetic stimulation, preliminary experiments
Protocol: (§1) Thy1::ChR2 or WT mice between the age of 4-7 weeks were briefly exposed to CO2, and immediately decapitated. Extracted brains were placed in oxygenated sucrose solution and sliced in 350-μm sections using a vibratome (Leica VT 1200S, Buffalo Grove, Ill.). Slices were then placed in buffering solution (aCSF; 119 mM NaCl, 11 mM D-glucose, 25 mM NaHCO3, 2.5 mM KCl, 1.2 mM NaH2PO4, 2.3 mM MgCl2, and 2.5 mM CaCl2) and allowed to recover for at least an hour. After recovery, slices were then moved into a 24 well plate and stimulated using a blue-light LED from a microscope objective. The stimulation paradigm mirrored in vivo experiments, using 20-Hz pulses of blue light for a 30 s on, 90 s off cycle over a period of 30 minutes. Surrounding medium was then collected for immediate use or frozen for future experiments.
A series of similar preliminary experiments were performed in which acute cortical slices were incubated with different protease inhibitors during optogenetic stimulation and then the active CM was analyzed by Western blot for secreted NLGN3.
Role for MMP9 in NLGN3 secretion: Acute cortical slices from Thy1::ChR2 mice were optogenetically-stimulated in the presence or absence of protease inhibitors as indicated. Conditioned media was analyzed by Western blot for secreted NLGN3 content.

[2] = tested on: NLGN3 mRNA in SU-pcGBM2 cells; assay: qPCR of NLGN3 gene expression in SU-pcGBM2 cells; format: cell-based, human; conditions: for effect on soluble NLGN3-induced increase in NLGN3 gene expression: 50 nM NLGN3 plus inhibitor, BKM120 500 nM (FIG. 5E) or 100 nM (FIG. 29), RAD001 100 nM
[3] = tested on: soluble NLGN3 in the CM (NLGN3 secretion); assay: Soluble NLGN3 in CM of optogenetically stimulated acute cortical slices, 2D-PAGE and mass spectrometry; format: cell-based, mouse; conditions: slices incubated with inhibitor during optogenetic stimulation; pilot experiment
Protocol: as §1

SU-pcGBM2 cells [4] = format: cell-based, human
pHGG cells = assay: pHGG cell proliferation with active CM from slices stimulated in presence of protease inhibitor; format: cell-based, human; conditions: inhibitor present during optogenetic stimulation of slices
Excerpt: MMP inhibition abrogates activity-regulated glioma proliferation. Acute cortical slices were optogenetically-stimulated in the presence or absence of a protease inhibitor as in Example 14, and pHGG cells were exposed to the CM. As expected, active CM in the absence of protease inhibitors contained secreted NLGN3 (FIG. 37) and promoted glioma cell proliferation (FIG. 38).
MMP inhibition in situ reduces activity-regulated glioma cell proliferation in vitro Active CM from Thy1::ChR2 cortical slices were incubated with either the multi-MMP inhibitor batimastat (A) or the ADAM17 inhibitor TAPI (B) during optogenetic stimulation and the active CM collected. Unconditioned media (aCSF) with or without inhibitor was used in control wells. Data shown as mean±SEM. One-way ANOVA, *P<0.05, ***P<0.001. n.s.=P>0.05.

O=C(Nc1ccccc1C(=O)NC1CCCCNC1=O)c1cc2ccccc2s1 (stereo not drawn) [ANA12, reference compound]
effect on the proliferative effect of active CM (SU-pcGBM2 cells [1]): completely abrogates the proliferative effect of active CM

CC(C)ON(CC(=O)NO)S(=O)(=O)c1ccc(-c2ccccc2)cc1 [ARP100]
secreted NLGN3 levels in active CM (secreted NLGN3): No detectable decrease in secreted NLGN3

Cl.Nc1cc(C(F)(F)F)c(-c2cc(N3CCOCC3)nc(N3CCOCC3)n2)cn1 [BKM120, 5-(2,6-dimorpholin-4-ylpyrimidin-4-yl)-4-(trifluoromethyl)pyridin-2-amine hydrochloride]
effect on soluble NLGN3-induced increase in NLGN3 gene expression ([2]; 12 h): blocked the soluble NLGN3-induced increase in NLGN3 gene expression | effect on NLGN3 expression in the absence of soluble NLGN3 exposure ([2]; BKM120 alone, 12 h): no effect on NLGN3 expression | effect on 50 nM NLGN3-induced increase in proliferation index (SU-pcGBM2 cells [1]): blocked

CNC(=O)[C@@H](NC(=O)[C@H](CCCc1ccccc1)[C@H](C)N(O)C=O)C(C)(C)C [GI254023X]
reduction in soluble NLGN3 in the CM [3]: ~50%

O=C(NO)[C@@H](Cc1ccccc1)NS(=O)(=O)c1ccc(-c2ccccc2)cc1 [MMP2/9 inhibitor SCBT inhibitor II, (2R)—N-hydroxy-3-phenyl-2-[(4-phenylphenyl)sulfonylamino]propanamide]
secreted NLGN3 levels in active CM (secreted NLGN3): significant decrease in NLGN3 levels

COc1ccc(S(=O)(=O)N2CCN(C(=O)OCc3ccccc3)CC2C(=O)NO)cc1 (stereo not drawn) [MMP9/13 Inhbitor II]
secreted NLGN3 levels in active CM (secreted NLGN3): significant decrease in NLGN3 levels

CO[C@H]1C[C@@H]2CC[C@@H](C)[C@@](O)(O2)C(=O)C(=O)N2CCCC[C@H]2C(=O)O[C@H]([C@H](C)C[C@@H]2CC[C@@H](OCCO)[C@H](OC)C2)CC(=O)[C@H](C)/C=C(\C)[C@@H](O)[C@@H](OC)C(=O)[C@H](C)C[C@H](C)/C=C/C=C/C=C/1C [RAD001, reference compound]
effect on soluble NLGN3-induced increase in NLGN3 gene expression ([2]; 12 h): prevented the feed-forward effect of NLGN3 on NLGN3 gene expression | effect on 50 nM NLGN3-induced increase in proliferation index (SU-pcGBM2 cells [1]): blocks 50 nM NLGN3-induced proliferation

NC1=N[C@H](O)[C@H]2[C@H]3O[C@]4(O)O[C@@H]([C@@H](O)[C@@]2(N1)[C@@H]4O)[C@]3(O)CO [TTX, tetrodotoxin]
proliferation index (SU-pcGBM2 cells [4]): ~0.25

ApoE: Recombinant candidate protein from proteomic analyses of cortical slice conditioned media
effect on proliferation index relative to aCSF control (SU-pcGBM2 cells [1]): did not differ

BDNF: Recombinant brain-derived neurotrophic factor (R&D Systems), candidate mitogen
potency of proliferation promotion compared with NLGN3 (SU-pcGBM2 cells [1]): less potently than NLGN3 | effect on proliferation index relative to aCSF control (SU-pcGBM2 cells [1]): promote glioma cell proliferation

EGF: Epidermal growth factor (Shenandoah), ligand known to stimulate the PI3K pathway
effect on glioma cell NLGN3 expression ([2]; 50 nM EGF, 12 hour vs vehicle): no effect was found

GRP78: Recombinant 78-kDa glucose-regulated protein (Abcam), known glioma mitogen
potency of proliferation promotion compared with NLGN3 (SU-pcGBM2 cells [1]): less potently than NLGN3 | effect on proliferation index relative to aCSF control (SU-pcGBM2 cells [1]): promote glioma cell proliferation

NRXN1β: Recombinant neurexin-1β (R&D Systems), binds NLGN3 with high affinity, used to deplete NLGN3
effect on the proliferative effect of active CM (SU-pcGBM2 cells [1]): completely abrogates the proliferative effect of active CM | effect on proliferation index (SU-pcGBM2 cells [1]; NRXN1β alone (500 nM) added to aCSF or to CM from WT cortical slices): no effect on proliferation index | proliferation index (SU-pcGBM2 cells [1]; pHGG cells exposed to 50 nM NLGN3+500 nM NRXN1β): 0.28±0.01 | proliferation index (SU-pcGBM2 cells [1]; pHGG cells exposed to Thy1::ChR2 CM+NRXN1β (500 nM)): 0.34±0.01

TAPI
secreted NLGN3 levels in active CM (secreted NLGN3): no effect on NLGN3 levels was observed | secreted NLGN3 levels in active CM (secreted NLGN3; listed as ADAM17 inhibitor): did not decrease NLGN3 levels | effect on the mitogenic effect of active CM (pHGG cells): did not alter the mitogenic effect of active CM
